Measurements taken from patent US20140378378A1, “ERYTHROPOIETIN-DERIVED PEPTIDE AND USE THEREFOR” (priority 2011, published 2014).

How the values were obtained:
retinal neurocytes = experiment: Cell survival of retinal neurocytes, MTT assay, 72 hours, hypoxic conditions; assay type: cell-based, rat; settings: for cell survival rate: normal culture = 100%
Procedure: Eyes of a […] rat were removed and retina of the eyes were separated and then put into solution 1. Retinal tissues were treated in trypsin at a temperature of 37° C. for 10 minutes and then centrifuged at 180 g for 5 minutes.
After centrifugation, a supernatant solution was discarded and all collected tissues were put into a stop solution. Aggregated tissues were disentangled by using a pipette and then centrifuged again at 180 g for 5 minutes. Separated cells were mixed with 10% FBS-MEM at a density of 1×10^6 cells/mL. 100 ul of cells were inoculated in each well of a 96-well plate and then cultured for 24 hours.
Thereafter, the culture medium was removed from the well plate for stabilization, a new culture medium and 5 uM Ara-c (cytosine arabinoside, sigma, C1768) were added thereto, cultured for 48 hours, the culture medium was removed again after 48 hours, a new culture medium was added thereto, and then cultured in an incubator having conditions of […], 5% CO2, and a temperature of 37° C. for the next experiment. Thereafter, the culture medium was removed for stabilization after another 48 hours, then a new culture medium was added thereto, and then cultured in an incubator under conditions of […], 5% CO2, and a temperature of 37° C. for the next experiment.
Cells were seeded in a 96-well plate at a density of 2×10^4 cells/well and 200 ul for each well. In this regard, cell confluence was set to be about 70% to about 80%. After 24 hours, when the cells have stabilized, a 26 gauge or 28 gauge needle was used to remove a preexisting medium from the wells. 200 ul of PBS free of serum and nutrients was added to each well, the wells were divided into EPO treatment groups and MKX-2 treatment groups, which were further divided into experimental groups according to concentrations of 0 nM, 0.1 nM, 1 nM, 10 nM, 100 nM, and 1000 nM and then treated with a drug for 72 hours under hypoxic conditions, and surviving […] neurocytes were quantitatively analyzed in an […]. The EPO used was an Eporon injection (Dong-A Pharmaceuticals, Korea). All experimental groups for each concentration included 7 wells. After a certain treatment time, 3-[4,5-dimethylthiazol-2-yl]-2,5-diphenyl tetrazolium bromide (MTT, Sigma, M2128) that was dissolved in a phosphate buffered saline (PBS) and then sterilization filtered by using a membrane filter having a thickness of 0.22 um was added to each well in an amount of 100 ul at a concentration of 1 mg/ml. In this regard, an MIT reagent was used after wrapping the MTT reagent with a foil sheet to block it from light. […]
Thereafter, an ELISA reader was used to measure an O.D. value at 570 nm for quantitatively analysis. […]

neurocytes = experiment: Cell survival of neurocytes after serum removal, with or without 0.1% 2-mercaptoethanol, 72 hours; assay type: cell-based, rat
Excerpt: A rat pregnant for […] was cervically dislocated to sacrifice the experimental animal and the abdomen of the experimental animal was excised in an U-shape to expose the uterus in which a fetus was located. Thereafter, the fetus was taken out from the uterus and then inserted into a fetus washing medium and then washed three times. Only the head of the fetus was cut and then inserted into the fetus washing medium to wash the head three times and then the cranium of the fetus was broken to separate the brain therefrom. A knife was used to cut the cortex of the brain and tissues of the cortex were thoroughly chopped, which were then collected in the already prepared fetus washing medium. After centrifuging at 400 g for 4 minutes, a supernatant was removed therefrom and then 0.025% of trypsin and 10 ml of DNase1 were added to the pellets to break the pellets. The mixture was stored in an incubator for 15 minutes.
Thereafter, 15 ml of a cell culture medium was added thereto again, centrifuged at 400 g for 4 minutes, a supernatant was removed therefrom to obtain pellets, which were washed twice with 6 ml of a washing medium (including DNase 1), and then centrifuged again at 400 g for 4 minutes. After the centrifugation, the supernatant solution was removed again to obtain pellets, 10 ml of the culture medium was added to the pellets and a mixture obtained therefrom was mixed with 10 ul of trypan blue to count the cells by using a hemocytometer. In a 24-well plate, 500 ul of the cells were seeded in each well and then cultured for 48 hours. Thereafter, the culture medium was removed from the well plate for stabilization, a new cell culture medium and 5 uM Ara-c (cytosine arabinoside, sigma, C1768) were added thereto, cultured for […], the culture medium was removed again after 24 hours, a new culture medium was added thereto, and then cultured in an incubator having conditions of […], 5% CO2, and a temperature of 37° C. for the next experiment.
In a 96-well plate, cells were inoculated at a density of 2×10^4 cells/well and in an amount of 200 ul for each well. In this regard, cell confluence was set to be about 70% to about 80%. After 24 hours, when the cells have stabilized, a 26 or 28 gauge needle was used to remove a pre-existing medium from the wells. […]

## EPO: erythropoietin; the EPO used was an Eporon injection (Dong-A Pharmaceuticals, Korea)
Retinal neurocytes; 0.1 nM and 1 nM
  increase of cell survival rate compared to 0 nM: without any statistical significance
Retinal neurocytes; 10 nM
  cell survival rate: 128.03%
Retinal neurocytes; 100 nM
  cell survival rate: 127.6%
Retinal neurocytes; 1000 nM
  cell survival rate: 124.77%
neurocytes; EPO 1 IU/ml, serum removed, no 2-mercaptoethanol, 72 hours, normal culture = 100%
  cell survival rate: 41.64%
neurocytes; EPO 1 U/ml, after exposure to 0.1% 2-mercaptoethanol for 18 hours
  cell survival rate: 6.98%
neurocytes; EPO 10 IU/ml, serum removed, no 2-mercaptoethanol, 72 hours, normal culture = 100%
  cell survival rate: 48.57%
neurocytes; EPO 10 U/ml, after exposure to 0.1% 2-mercaptoethanol for 18 hours
  cell survival rate: 11.70%
